Columns and labels:
[1] = test system: spontaneously hypertensive rats; assay: Heart rate change in spontaneously hypertensive rats; type: in vivo, rat; settings: SHR; for heart rate lowering effect compared with the corresponding unsalted compound: oral administration, result in words; for Heart rate change, 1 hour after administration (average ± standard error) / Heart rate change, 3 hours after administration (average ± standard error) / Heart rate change, 5 hours after administration (average ± standard error) / Heart rate change, 7 hours after administration (average ± standard error) / Heart rate change, 10 hours after administration (average ± standard error) / Heart rate change, 24 hours after administration (average ± standard error): intragastric, 1 mg/kg (calculated by effective dose of Azilsartan), relative to before administration
Method: (§1) 12-week-old spontaneously hypertensive rats (hereinafter referred to as SHR, purchased from Beijing Weitong Lihua Experimental Animal Technology Co., Ltd.) were anesthetized with 2.5% sodium pentobarbital for intraperitoneal injection. After that, the blood pressure sensing catheter of hypertension implant was inserted into their abdominal aorta, while the implant was fixed to the abdominal wall, and then postoperative daily care was performed after suturing. Rats with systolic blood pressure exceeding 160 mm Hg were divided into 3 groups (control group, QR01019 group and QR01019K group) wherein each group has 8 rats. The control group was administrated 0.5% sodium carboxymethylcellulose (hereinafter referred to as CMC-Na); QR01019 group and QR01019K group were respectively administered, both of which were dissolved by 0.5% CMC-Na, by intragastric administration, at a dose of 1 mg/kg (calculated by the effective dose of Azilsartan) and a volume calculated by 4 mL/kg. The systolic blood pressure and heart rate of SHR were compared before and after administration (the systolic blood pressure and heart rate of SHR before administration as reference value), which were detected three times at each time point with the average value recorded.

[2] = test system: spontaneously hypertensive rats; assay: Antihypertensive efficacy test in spontaneously hypertensive rats: systolic blood pressure change; type: in vivo, rat; settings: SHR; for antihypertensive effect compared with the corresponding unsalted compound: oral administration; for antihypertensive effect compared with the corresponding unsalted compound / systolic blood pressure compared with the control group: result in words; for systolic blood pressure compared with the control group: after 3 hours of administration; for Systolic blood pressure change, 1 hour after administration (average ± standard error) / Systolic blood pressure change, 3 hours after administration (average ± standard error) / Systolic blood pressure change, 5 hours after administration (average ± standard error) / Systolic blood pressure change, 7 hours after administration (average ± standard error) / Systolic blood pressure change, 10 hours after administration (average ± standard error) / Systolic blood pressure change, 24 hours after administration (average ± standard error): intragastric, 1 mg/kg (calculated by effective dose of Azilsartan), relative to before administration
Method: as §1

Row | SMILES | heart rate lowering effect compared with the corresponding unsalted compound [1] | antihypertensive effect compared with the corresponding unsalted compound [2] | also measured
1 | CCOc1nc2cccc(C(=O)OCOC(=O)C(C)(C)C)c2n1Cc1ccc(-c2ccccc2-c2noc(=O)[n-]2)cc1.[K+] [QR01005K] | more potent and longer-lasting | more potent and longer-lasting | –
2 | CCOc1nc2cccc(C(=O)OCCCCO[N+](=O)[O-])c2n1Cc1ccc(-c2ccccc2-c2noc(=O)[n-]2)cc1.[K+] [QR01008K] | more potent and longer-lasting | more potent and longer-lasting | –
3 | CCOc1nc2cccc(C(=O)OCc3c(-c4ccccc4)no[n+]3[O-])c2n1Cc1ccc(-c2ccccc2-c2noc(=O)[n-]2)cc1.[K+] [QR01009K] | more potent and longer-lasting | more potent and longer-lasting | –
4 | CCOc1nc2cccc(C(=O)OCCCCOc3no[n+]([O-])c3S(=O)(=O)c3ccccc3)c2n1Cc1ccc(-c2ccccc2-c2noc(=O)[n-]2)cc1.[K+] [QR01011K] | more potent and longer-lasting | more potent and longer-lasting | –
5 | CCOc1nc2cccc(C(=O)OCc3oc(=S)oc3C)c2n1Cc1ccc(-c2ccccc2-c2noc(=O)[n-]2)cc1.[K+] [QR01013K] | more potent and longer-lasting | more potent and longer-lasting | –
6 | CCOc1nc2cccc(C(=O)OCOC(=O)OCc3nc(C)c(C)nc3C)c2n1Cc1ccc(-c2ccccc2-c2noc(=O)[n-]2)cc1.[K+] [QR01017K] | more potent and longer-lasting | more potent and longer-lasting | –
7 | CCOc1nc2cccc(C(=O)OC(C)OC(=O)OCc3nc(C)c(C)nc3C)c2n1Cc1ccc(-c2ccccc2-c2noc(=O)[n-]2)cc1.[K+] (stereo not drawn) [QR01019K] | more potent with a longer-lasting heart rate lowing effect | more potent with a longer-lasting antihypertensive effect | Heart rate change, 1 hour after administration (average ± standard error) [1]: −3.6 ± 2.4 times/minute; Heart rate change, 3 hours after administration (average ± standard error) [1]: −5.0 ± 2.5 times/minute; Heart rate change, 5 hours after administration (average ± standard error) [1]: −10.1 ± 3.0 times/minute; Heart rate change, 7 hours after administration (average ± standard error) [1]: −17.5 ± 3.0 times/minute; Heart rate change, 10 hours after administration (average ± standard error) [1]: −25.4 ± 2.4 times/minute; Heart rate change, 24 hours after administration (average ± standard error) [1]: −28.6 ± 8 times/minute; systolic blood pressure compared with the control group [2]: significantly decreased; Systolic blood pressure change, 1 hour after administration (average ± standard error) [2]: −7.0 ± 3.4 mmHg; Systolic blood pressure change, 3 hours after administration (average ± standard error) [2]: −34.3 ± 1.9 mmHg; Systolic blood pressure change, 5 hours after administration (average ± standard error) [2]: −46.5 ± 2.5 mmHg; Systolic blood pressure change, 7 hours after administration (average ± standard error) [2]: −49.4 ± 4.1 mmHg; Systolic blood pressure change, 10 hours after administration (average ± standard error) [2]: −45.3 ± 3.3 mmHg; Systolic blood pressure change, 24 hours after administration (average ± standard error) [2]: −25.9 ± 3.4 mmHg
8 | CCOc1nc2cccc(C(=O)OC(C)OC(=O)OCc3nc(C)c(C)nc3C)c2n1Cc1ccc(-c2ccccc2-c2noc(=O)[nH]2)cc1 (stereo not drawn) [QR01019] | – | – | Heart rate change, 1 hour after administration (average ± standard error) [1]: −3.4 ± 2.6 times/minute; Heart rate change, 3 hours after administration (average ± standard error) [1]: −2.33 ± 2.6 times/minute; Heart rate change, 5 hours after administration (average ± standard error) [1]: −6.5 ± 2.8 times/minute; Heart rate change, 7 hours after administration (average ± standard error) [1]: −6.2 ± 3.0 times/minute; Heart rate change, 10 hours after administration (average ± standard error) [1]: −12.3 ± 2.8 times/minute; Heart rate change, 24 hours after administration (average ± standard error) [1]: −6.7 ± 2.6 times/minute; systolic blood pressure compared with the control group [2]: significantly decreased; Systolic blood pressure change, 1 hour after administration (average ± standard error) [2]: −4.9 ± 4.8 mmHg; Systolic blood pressure change, 3 hours after administration (average ± standard error) [2]: −22.0 ± 3.6 mmHg; Systolic blood pressure change, 5 hours after administration (average ± standard error) [2]: −30.5 ± 3.5 mmHg; Systolic blood pressure change, 7 hours after administration (average ± standard error) [2]: −38.8 ± 2.3 mmHg; Systolic blood pressure change, 10 hours after administration (average ± standard error) [2]: −33.0 ± 1.7 mmHg; Systolic blood pressure change, 24 hours after administration (average ± standard error) [2]: −10.2 ± 2.1 mmHg
9 | CCOc1nc2cccc(C(=O)OCOC(=O)OCc3no[n+]([O-])c3C)c2n1Cc1ccc(-c2ccccc2-c2noc(=O)[n-]2)cc1.[K+] [QR01020K] | more potent and longer-lasting | more potent and longer-lasting | –
10 | CCOc1nc2cccc(C(=O)OCc3no[n+]([O-])c3C)c2n1Cc1ccc(-c2ccccc2-c2noc(=O)[n-]2)cc1.[K+] [QR01023K] | more potent and longer-lasting | more potent and longer-lasting | –
11 | CCOc1nc2cccc(C(=O)OCc3no[n+]([O-])c3C(C)(C)C)c2n1Cc1ccc(-c2ccccc2-c2noc(=O)[n-]2)cc1.[K+] [QR01026K] | more potent and longer-lasting | more potent and longer-lasting | –
12 | CCOc1nc2cccc(C(=O)OCOC(=O)OCc3ccno3)c2n1Cc1ccc(-c2ccccc2-c2noc(=O)[n-]2)cc1.[K+] [QR01030K] | more potent and longer-lasting | more potent and longer-lasting | –
13 | CCOc1nc2cccc(C(=O)OCOC(=O)OCc3cn(C)cn3)c2n1Cc1ccc(-c2ccccc2-c2noc(=O)[n-]2)cc1.[K+] [QR01031K] | more potent and longer-lasting | more potent and longer-lasting | –
14 | CCOc1nc2cccc(C(=O)OCOC(=O)OCc3ccn(C)c3)c2n1Cc1ccc(-c2ccccc2-c2noc(=O)[n-]2)cc1.[K+] [QR01032K] | more potent and longer-lasting | more potent and longer-lasting | –
15 | CCOc1nc2cccc(C(=O)OC(C)OC(=O)OCc3ccn(C)c3)c2n1Cc1ccc(-c2ccccc2-c2noc(=O)[n-]2)cc1.[K+] (stereo not drawn) [QR01033K] | more potent and longer-lasting | more potent and longer-lasting | –
16 | CCOc1nc2cccc(C(=O)OCc3no[n+]([O-])c3CO[N+](=O)[O-])c2n1Cc1ccc(-c2ccccc2-c2noc(=O)[n-]2)cc1.[K+] [QR01034K] | more potent and longer-lasting | more potent and longer-lasting | –
17 | CCOc1nc2cccc(C(=O)OC3CCc4c3no[n+]4[O-])c2n1Cc1ccc(-c2ccccc2-c2noc(=O)[n-]2)cc1.[K+] (stereo not drawn) [QR01035K] | more potent and longer-lasting | more potent and longer-lasting | –
18 | CCOc1nc2cccc(C(=O)OCc3no[n+]([O-])c3C#N)c2n1Cc1ccc(-c2ccccc2-c2noc(=O)[n-]2)cc1.[K+] [QR01036K] | more potent and longer-lasting | more potent and longer-lasting | –

From US11786471B2, “Complex disintegrant system for oral solid preparation and oral solid preparation comprising said complex disintegrant system” (WUHAN LL SCIENCE AND TECHNOLOGY DEVELOPMENT CO., LTD., priority 2016, dated 2023)
